Data reported in patent US11660293B2, “Substituted 2-azabicyclo[3.1.1]heptane and 2-azabicyclo[3.2.1]octane derivatives as orexin receptor antagonists” (Chronos Therapeutics Limited, priority 2017, dated 2023).

How the values were obtained:
[1] = biological target: human Orexin type 1 receptors (Homo sapiens (Human), UniProt O43613); test: Scintillation Proximity Assay (SPA) binding assay, [3H]SB-674042 displacement, CHO-hOX1 membranes
Experimental: Scintillation Proximity Assay (SPA) Binding Assays CHO cells stably transfected with human Orexin type 1 receptors (CHO-hOX1) or HEK-293 cells transiently transfected with human Orexin type 2 receptors (HEK-hOX2) were collected after 16 h induction with 5 mM sodium butyrate. […] The binding was performed in a final volume of 200 μl. 100 μl of hOX1 or hOX2 beads-membranes suspension were added to 100 μl of [^3H]SB-674042 or [^3H]EMPA solutions (radioligand concentration 2 nM final in the assay), into the 96-well Isoplates containing the 2 μl/well of compounds to be tested. Nonspecific binding was measured in the presence of 1 μM Almorexant. Assay plates were then incubated at room temperature for 3 h before being counted in a Microbeta scintillation counter (PerkinElmer). Data were analysed by non-linear regression analysis using XLfit Software.

[2] = biological target: human Orexin type 2 receptors (Homo sapiens (Human), UniProt O43614); test: Scintillation Proximity Assay (SPA) binding assay, [3H]EMPA displacement, HEK-hOX2 membranes
human Orexin type 2 receptors, sequence (O43614 whole entry): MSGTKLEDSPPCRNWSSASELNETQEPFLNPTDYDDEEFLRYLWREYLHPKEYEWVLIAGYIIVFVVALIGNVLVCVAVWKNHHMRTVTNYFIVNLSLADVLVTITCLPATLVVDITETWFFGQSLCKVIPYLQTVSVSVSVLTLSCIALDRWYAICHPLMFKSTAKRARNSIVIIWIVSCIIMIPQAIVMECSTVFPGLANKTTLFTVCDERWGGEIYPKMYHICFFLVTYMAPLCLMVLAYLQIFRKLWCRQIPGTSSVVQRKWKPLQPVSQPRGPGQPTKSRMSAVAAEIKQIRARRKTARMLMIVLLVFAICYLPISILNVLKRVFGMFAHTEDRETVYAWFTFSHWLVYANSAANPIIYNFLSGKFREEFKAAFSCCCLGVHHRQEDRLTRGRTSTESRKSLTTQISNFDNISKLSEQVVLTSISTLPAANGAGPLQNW
Experimental: Scintillation Proximity Assay (SPA) Binding Assays
CHO cells stably transfected with human Orexin type 1 receptors (CHO-hOX1) or HEK-293 cells transiently transfected with human Orexin type 2 receptors (HEK-hOX2) were collected after 16 h induction with 5 mM sodium butyrate. The cell pellets were re-suspended, homogenized in 15 mM Tris/HCl pH=7.5, 1 mM EGTA, 0.3 mM EDTA, 2 mM MgCl2, protease inhibitors and centrifuged at 40,000 g (20 min, 4° C.). After re-suspension, homogenization and centrifugation as above, the final pellets were re-suspended in 75 mM Tris/HCl pH=7.5, 1 mM EGTA, 0.3 mM EDTA, 12.5 mM MgCl2, 250 mM Sucrose, protease inhibitors, divided into aliquots and frozen down at −80° C.
CHO-hOX1 cell membranes (6 μg ml^−1) or HEK-hOX2 membranes (8 μg ml^−1) were pre-coupled with 1.0 mg ml^−1 of Wheatgerm Agglutinin-coated Yttrium Silicate (YSi-WGA) SPA beads (Perkin Elmer) in buffer containing 25 mM HEPES pH=7.4, 1 mM CaCl2), 5 mM MgCl2, 0.01% (w/v) BSA, 0.02% (w/v) Pluronic F-127 by shaking at room temperature for 2.5-3 h.
The binding was performed in a final volume of 200 μl. 100 μl of hOX1 or hOX2 beads-membranes suspension were added to 100 μl of [^3H]SB-674042 or [^3H]EMPA solutions (radioligand concentration 2 nM final in the assay), into the 96-well Isoplates containing the 2 μl/well of compounds to be tested. Nonspecific binding was measured in the presence of 1 μM Almorexant. Assay plates were then incubated at room temperature for 3 h before being counted in a Microbeta scintillation counter (PerkinElmer).
Data were analysed by non-linear regression analysis using XLfit Software.

human Orexin type 1 receptors, sequence (O43613 whole entry): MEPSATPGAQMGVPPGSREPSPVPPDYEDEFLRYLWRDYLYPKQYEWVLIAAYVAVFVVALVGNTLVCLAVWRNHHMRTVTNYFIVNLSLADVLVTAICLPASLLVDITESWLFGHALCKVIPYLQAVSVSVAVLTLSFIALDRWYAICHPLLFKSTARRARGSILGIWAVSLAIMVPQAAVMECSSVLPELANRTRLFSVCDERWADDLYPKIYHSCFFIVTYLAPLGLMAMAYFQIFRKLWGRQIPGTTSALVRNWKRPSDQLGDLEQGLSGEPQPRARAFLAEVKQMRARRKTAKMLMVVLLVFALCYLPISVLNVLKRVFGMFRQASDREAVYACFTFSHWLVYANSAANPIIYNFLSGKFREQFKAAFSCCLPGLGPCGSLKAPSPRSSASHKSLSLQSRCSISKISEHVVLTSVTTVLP

SMILES	OX1 pKi (SPA binding) ([1]; Table 2, [3H]SB-674042 2 nM)	OX2 pKi (SPA binding) ([2]; Table 2, [3H]EMPA 2 nM)	further results
Cc1ccc(-n2nccn2)c(C(=O)N2C3CC(C3)[C@@H](C)C2CNc2nc3ccc(F)cc3s2)n1 (single isomer, unassigned) [Example 154, 6-fluoro-N-{[(3R,4S) or (3S,4R)-4-methyl-2-[6-methyl-3-(2H-1,2,3-triazol-2-yl)pyridine-2-carbonyl]-2-azabicyclo[3.1.1]heptan-3-yl]methyl}-1,3-benzothiazol-2-amine]	9.06	6.23	
Cc1ccc(OCC2[C@H](C)C3CC(C3)N2C(=O)c2nc(C)ccc2-n2nccn2)nc1 (mixture of isomers) [Example 100, cis-4-methyl-2-[6-methyl-3-(2H-1,2,3-triazol-2-yl)pyridine-2-carbonyl]-3-{[(5-methylpyridin-2-yl)oxy]methyl}-2-azabicyclo[3.1.1]heptane]			OX1 pKi (SPA binding) ([1]; Table 1, [3H]SB-674042 2 nM): 7.03; OX2 pKi (SPA binding) ([2]; Table 1, [3H]EMPA 2 nM): 5.96
Cc1nc(C(=O)N2C3CC(C3)[C@@H](C)[C@@H]2COc2cc3ccccc3cn2)c(-c2ccccc2)s1 (single isomer, unassigned) [Example 88, 3-{[(3S,4S or 3R,4R)-4-methyl-2-(2-methyl-5-phenyl-1,3-thiazole-4-carbonyl)-2-azabicyclo[3.1.1]heptan-3-yl]methoxy}isoquinoline]			Ki ([1]; Table 1, [3H]SB-674042 2 nM, read-out: OX1 pKi (SPA binding) (converted)): 12 nM; Ki ([2]; Table 1, [3H]EMPA 2 nM, read-out: OX2 pKi (SPA binding) (converted)): 275 nM
C[C@@H]1C2CC(C2)N(C(=O)c2cc(C#N)ccc2-n2nccn2)C1CNc1nc2cccnc2s1 (stereo partly drawn) [Example 231, cis-3-{4-methyl-3-[({[1,3]thiazolo[5,4-b]pyridin-2-yl}amino)methyl]-2-azabicyclo[3.1.1]heptane-2-carbonyl}-4-(2H-1,2,3-triazol-2-yl)benzonitrile]	8.2	5.21	
Cc1ccc(-n2nccn2)c(C(=O)N2C3CC(C3)[C@@H](C)C2CNc2ncc3ccccc3n2)n1 (stereo partly drawn) [Example 155, cis-N-({4-methyl-2-[6-methyl-3-(2H-1,2,3-triazol-2-yl)pyridin-2-carbonyl]-2-azabicyclo[3.1.1]heptan-3-yl}methyl)quinazolin-2-amine]	7.71	5.49	
C[C@@H]1C2CC(C2)N(C(=O)c2cc(Cl)ccc2-n2nccn2)C1CNc1nc2cccnc2o1 (mixture of isomers) [Example 242, cis-N-({2-[5-chloro-2-(2H-1,2,3-triazol-2-yl)benzoyl]-4-methyl-2-azabicyclo[3.1.1]heptan-3-yl}methyl)-[1,3]oxazolo[5,4-b]pyridin-2-amine]	8.1	5.14	
Cc1nc(C(=O)N2C3CC(C3)[C@H](C)C2COc2ccc(F)cc2)c(-c2cnccn2)s1 (mixture of isomers) [Example 121, trans-3-[(4-fluorophenoxy)methyl]-4-methyl-2-[2-methyl-5-(pyrazin-2-yl)-1,3-thiazole-4-carbonyl]-2-azabicyclo[3.1.1]heptane]	7.36	5.54	
Cc1ccc(-c2nccs2)c(C(=O)N2C3CC(C3)[C@H](C)C2COc2ccc(F)cc2)n1 (mixture of isomers) [Example 106, trans-3-[(4-fluorophenoxy)methyl]-4-methyl-2-[6-methyl-3-(1,3-thiazol-2-yl)pyridine-2-carbonyl]-2-azabicyclo[3.1.1]heptane]			OX1 pKi (SPA binding) ([1]; Table 1, [3H]SB-674042 2 nM): 8.16; OX2 pKi (SPA binding) ([2]; Table 1, [3H]EMPA 2 nM): 6.12
C[C@@H]1C2CC(C2)N(C(=O)c2cc(Cl)ccc2-n2nccn2)C1CNc1nc2ccc(F)cc2s1 (mixture of isomers) [Example 171, cis-N-({2-[5-chloro-2-(2H-1,2,3-triazol-2-yl)benzoyl]-4-methyl-2-azabicyclo[3.1.1]heptan-3-yl}methyl)-6-fluoro-1,3-benzothiazol-2-amine]	8.9	6.32	
Cc1ccc(-c2nccs2)c(C(=O)N2C3CC(C3)[C@@H](C)C2CNc2ccc(F)cc2)c1 (stereo partly drawn) [Example 202, cis-4-fluoro-N-({4-methyl-2-[5-methyl-2-(1,3-thiazol-2-yl)benzoyl]-2-azabicyclo[3.1.1]heptan-3-yl}methyl)aniline]	6.71	6.02	
Cc1nc(C(=O)N2C(COc3ccc(F)cc3)CC3CC2C3)c(-c2ccccc2F)s1 (stereo not drawn) [Example 40]			OX1 pKi (SPA binding) ([1]; Table 1, [3H]SB-674042 2 nM): 7.33; OX2 pKi (SPA binding) ([2]; Table 1, [3H]EMPA 2 nM): 6.19
C[C@@H]1C2CC(C2)N(C(=O)c2nn(C)cc2-c2ccccc2)C1CNc1ccc(C(F)(F)F)cn1 (mixture of isomers) [Example 210, cis-N-{[4-methyl-2-(1-methyl-4-phenyl-1H-pyrazole-3-carbonyl)-2-azabicyclo[3.1.1]heptan-3-yl]methyl}-5-(trifluoromethyl)pyridin-2-amine]	8.69	5.84	
Cc1ccc(-c2ncccn2)c(C(=O)N2C3CC(C3)[C@@H](C)C2CNc2cnc(C(F)(F)F)cn2)n1 (mixture of isomers) [Example 248, cis-N-({4-methyl-2-[6-methyl-3-(pyrimidin-2-yl)pyridine-2-carbonyl]-2-azabicyclo[3.1.1]heptan-3-yl}methyl)-5-(trifluoromethyl)pyrazin-2-amine]	7.76	4.58	
Cc1nc(C(=O)N2C3CC(C3)[C@H](C)C2COc2ccc(F)cc2)c(-c2ccccn2)s1 (single isomer, unassigned) [Example 124, (3S,4S) or (3R,4R)-3-[(4-fluorophenoxy)methyl]-4-methyl-2-[2-methyl-5-(pyridin-2-yl)-1,3-thiazole-4-carbonyl]-2-azabicyclo[3.1.1]heptane]	8.43	6.3	
Cc1ccc(-c2nccs2)c(C(=O)N2C3CC(C3)[C@H](C)C2COc2ccc(F)cc2)c1 (mixture of isomers) [Example 101, trans-3-[(4-fluorophenoxy)methyl]-4-methyl-2-[5-methyl-2-(1,3-thiazol-2-yl)benzoyl]-2-azabicyclo[3.1.1]heptane]			OX1 pKi (SPA binding) ([1]; Table 1, [3H]SB-674042 2 nM): 8.02; OX2 pKi (SPA binding) ([2]; Table 1, [3H]EMPA 2 nM): 6.15
Cc1ccc(-n2nccn2)c(C(=O)N2C3CC(C3)[C@H](C)C2CNc2ncc3ccccc3n2)n1 (stereo partly drawn) [Example 149, trans-N-({4-methyl-2-[6-methyl-3-(2H-,2,3-triazol-2-yl)pyridine-2-carbonyl]-2-azabicyclo[3.1.1]heptan-3-yl}methyl)quinazolin-2-amine]	6.82	5.72	
Cc1ccc(-n2nccn2)c(C(=O)N2C3CC(C3)[C@@H](C)C2CNc2cnc3ccccc3n2)n1 (single isomer, unassigned) [Example 160, N-{[(3R,4S) or (3S,4R)-4-methyl-2-[6-methyl-3-(2H-1,2,3-triazol-2-yl)pyridine-2-carbonyl]-2-azabicyclo[3.1.1]heptan-3-yl]methyl}quinoxalin-2-amine]	8.68	5.98	
C[C@@H]1C2CC(C2)N(C(=O)c2cc(Cl)ccc2-n2nccn2)C1CNc1cnc(C2CC2)cn1 (stereo partly drawn) [Example 257]	7.58	5.41	
Cc1nc(C(=O)N2C(COc3ncc4ccn(C)c4n3)CC3CC2C3)c(-c2ccccc2)s1 (stereo not drawn) [Example 57]			OX1 pKi (SPA binding) ([1]; Table 1, [3H]SB-674042 2 nM): 7.35; OX2 pKi (SPA binding) ([2]; Table 1, [3H]EMPA 2 nM): 6.86
Cc1ccc(-n2nccn2)c(C(=O)N2C3CC(C3)[C@H](C)C2COc2nc3ccc(F)cc3s2)n1 (stereo partly drawn) [Example 110, trans-6-fluoro-2-({4-methyl-2-[6-methyl-3-(2H-1,2,3-triazol-2-yl)pyridine-2-carbonyl]-2-azabicyclo[3.1.1]heptan-3-yl}methoxy)-1,3-benzothiazole]			OX1 pKi (SPA binding) ([1]; Table 1, [3H]SB-674042 2 nM): 7; OX2 pKi (SPA binding) ([2]; Table 1, [3H]EMPA 2 nM): 6.06
Cc1ccc(-n2nccn2)c(C(=O)N2C3CC(C3)[C@@H](C)C2CNc2nc3ccc(F)cc3s2)n1 (mixture of isomers) [Example 152, cis-6-fluoro-N-({4-methyl-2-[6-methyl-3-(2H-1,2,3-triazol-2-yl)pyridine-2-carbonyl]-2-azabicyclo[3.1.1]heptan-3-yl}methyl)-1,3-benzothiazol-2-amine]	8.68	6.1	
